Reference: US20220380314A1, “SUBSTITUTED, SATURATED AND UNSATURATED N-HETEROCYCLIC CARBOXAMIDES AND RELATED COMPOUNDS FOR THEIR USE IN THE TREATMENT OF MEDICAL DISORDERS” (Bial - R&D Investments, S.A., priority 2019, published 2022)
Values after ≈ are worked out from the molar mass of the structure shown.

Key:
[1] = Compound solubility in water; type: physicochemical
[2] = biological target: T1, acid ceramidase (hACR) (Homo sapiens, UniProt Q13510); test: Acid ceramidase inhibition, biochemical fluorescent assay with cell lysates overexpressing acid ceramidase, substrate Rbm14-12; settings: cell lysates overexpressing acid ceramidase; 1 hr preincubation at RT; pH 4.5; substrate Rbm14-12 6.3 μM; read-out: hACR IC50
T1 construct: expressed in transfected cells; cell lysate used
T1 sequence (Q13510 143-395 limits assumed): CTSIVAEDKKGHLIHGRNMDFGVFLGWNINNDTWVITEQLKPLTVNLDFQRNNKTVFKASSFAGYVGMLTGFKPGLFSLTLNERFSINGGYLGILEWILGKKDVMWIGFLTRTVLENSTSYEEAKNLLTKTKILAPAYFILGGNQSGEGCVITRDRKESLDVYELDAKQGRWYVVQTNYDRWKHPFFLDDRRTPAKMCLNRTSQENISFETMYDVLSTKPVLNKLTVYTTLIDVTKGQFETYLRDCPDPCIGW
T1 sequence (Q13510 22-142 limits assumed): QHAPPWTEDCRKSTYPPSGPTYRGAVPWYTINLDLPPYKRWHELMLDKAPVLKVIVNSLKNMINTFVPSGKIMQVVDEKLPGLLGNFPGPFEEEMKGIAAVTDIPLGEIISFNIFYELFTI
Procedure: The ability of exemplary compounds to inhibit acid ceramidase was measured.
Cell lysates overexpressing acid ceramidase were used as the enzyme source for compound potency determination in a biochemical fluorescent assay. Briefly, compounds were preincubated with 10 µg protein of cell lysates in a dose-response manner for 1 hr at RT in the assay buffer containing 25 mM NaAC and 100 mM NaCl, pH 4.5. The reaction was initiated by the addition of substrate Rbm14-12 at a final concentration of 6.3 μM. The reaction was run at RT for 1 hr before it was stopped by the addition of the stopping buffer containing 20% methanol (v/v), 1 mg/ml NaIO4, 0.1 M glycine, pH 10.6. The samples were incubated with the stopping buffer at RT for 1 hr to allow the fluorescent product to be formed. Finally the plate was read with SpectraMax i3 plate reader (Molecular Devices) at ex360 nm and em446 nm. Data were collected and used to determine the IC50 values of compounds by curve fitting to the four-parameter inhibition equation.
The symbol “A” indicates inhibition of less than 0.2 μM; the symbol “B” indicates inhibition in the range of 0.2 μM up to 1 μM; and the symbol “C” indicates inhibition of greater than 1 μM.

| solubility [1] | IC50 [2] | Compound |
| --- | --- | --- |
| 8.1 µM (≈ 3.19 µg/mL) | 200 to 1000 nM | CC1(C)CCc2c(N3CCOCC3)cccc2N1C(=O)NCCc1ccccc1 [Example 11, 2,2-Dimethyl-5-morpholino-N-phenethyl-3,4-dihydroquinoline-1(2H)-carboxamide] |
| 26.6 µM (≈ 10.3 µg/mL) | > 1000 nM | Cn1ccnc1-c1ccc2c(c1)N(C(=O)NCCc1ccccc1)C(C)(C)CC2 [Example 12, 2,2-Dimethyl-7-(1-methyl-1H-imidazol-2-yl)-N-phenethyl-3,4-dihydroquinoline-1(2H)-carboxamide] |
| 33.6 µM (≈ 13.1 µg/mL) | > 1000 nM | Cn1ccnc1-c1cccc2c1CCC(C)(C)N2C(=O)NCCc1ccccc1 [Example 13, 2,2-Dimethyl-5-(1-methyl-1H-imidazol-2-yl)-N-phenethyl-3,4-dihydroquinoline-1(2H)-carboxamide] |
| 24 µM (≈ 7.43 µg/mL) | > 1000 nM | CC1(C)c2ncccc2CCN1C(=O)NCCc1ccccc1 [Example 14, 8,8-Dimethyl-N-phenethyl-5,6-dihydro-1,7-naphthyridine-7(8H)-carboxamide] |
| 0.9 µM (≈ 0.278 µg/mL) | > 1000 nM | CC1(C)c2ccccc2CCN1C(=O)NCCc1ccccc1 [Example 15, 1,1-Dimethyl-N-phenethyl-3,4-dihydroisoquinoline-2(1H)-carboxamide] |
| 3.1 µM (≈ 0.962 µg/mL) | > 1000 nM | CC1(C)COc2ccccc2N1C(=O)NCCc1ccccc1 [Example 16, 3,3-Dimethyl-N-phenethyl-2H-benzo[b][1,4]oxazine-4(3H)-carboxamide] |
| 28.7 µM (≈ 7.53 µg/mL) | – | COCCNC(=O)N1c2ccccc2CCC1(C)C [Example 32, N-(2-Methoxyethyl)-2,2-dimethyl-3,4-dihydroquinoline-1(2H)-carboxamide] |
| 33.4 µM (≈ 9.7 µg/mL) | – | COC1CCN(C(=O)NCCc2ccccc2)C(C)(C)C1 (stereo not shown) [Example 36, 4-Methoxy-2,2-dimethyl-N-phenethylpiperidine-1-carboxamide] |
| – | < 200 nM | CC1(C)CN(C2CC2)CC(c2ccccc2)N1C(=O)NCCCCc1ccccc1 (stereo not shown) [Example 169, 4-Cyclopropyl-2,2-dimethyl-6-phenyl-N-(4-phenylbutyl)piperazine-1-carboxamide] |

More lines, now with the values behind:

| Compound | solubility [1] | IC50 [2] |
| --- | --- | --- |
| CN1CCC(c2ccc3c(c2)N(C(=O)NCCc2ccccc2)C(C)(C)CC3)CC1 [Example 1, 2,2-Dimethyl-7-(1-methylpiperidin-4-yl)-N-phenethyl-3,4-dihydroquinoline-1(2H)-carboxamide] | 33.2 µM (≈ 13.5 µg/mL) | 200 to 1000 nM |
| CN1CCC(c2cccc3c2CCC(C)(C)N3C(=O)NCCc2ccccc2)CC1 [Example 2, 2,2-Dimethyl-5-(1-methylpiperidin-4-yl)-N-phenethyl-3,4-dihydroquinoline-1(2H)-carboxamide] | 36.5 µM (≈ 14.8 µg/mL) | < 200 nM |
| CN1CCC(c2ccc3c(c2)N(C(=O)NCCc2ccccc2)CCC3)CC1 [Example 3, 7-(1-Methylpiperidin-4-yl)-N-phenethyl-3,4-dihydroquinoline-1(2H)-carboxamide] | 38.7 µM (≈ 14.6 µg/mL) | > 1000 nM |
| CC1(C)CCc2ccccc2N1C(=O)NCCc1ccccc1 [Example 6, 2,2-Dimethyl-N-phenethyl-3,4-dihydroquinoline-1(2H)-carboxamide] | 3.2 µM (≈ 0.987 µg/mL) | 200 to 1000 nM |
| CN1CC(C)(C)N(C(=O)NCCc2ccccc2)c2ccccc21 [Example 7, 2,2,4-Trimethyl-N-phenethyl-3,4-dihydroquinoxaline-1(2H)-carboxamide] | 6.7 µM (≈ 2.17 µg/mL) | 200 to 1000 nM |
| CC1(C)CCc2cccnc2N1C(=O)NCCc1ccccc1 [Example 8, 2,2-Dimethyl-N-phenethyl-3,4-dihydro-1,8-naphthyridine-1(2H)-carboxamide] | 27.4 µM (≈ 8.48 µg/mL) | > 1000 nM |
| CC1(C)CCc2ncccc2N1C(=O)NCCc1ccccc1 [Example 9, 2,2-Dimethyl-N-phenethyl-3,4-dihydro-1,5-naphthyridine-1(2H)-carboxamide] | 25.2 µM (≈ 7.8 µg/mL) | > 1000 nM |
| CC1(C)CCc2ccc(N3CCOCC3)cc2N1C(=O)NCCc1ccccc1 [Example 10, 2,2-Dimethyl-7-morpholino-N-phenethyl-3,4-dihydroquinoline-1(2H)-carboxamide] | 6.7 µM (≈ 2.64 µg/mL) | > 1000 nM |
